This is an account of results in US10966426B2, “Herbicidal compositions comprising phenylpyrimidines” (BASF SE, priority 2016, dated 2021).

Assay type in all cases: in vivo
For one assay, the system named is Avena fatua. As to the kind of experiment: greenhouse pre-emergence treatment, AVEFA. The note with it: 20 DAT. The source says:
(§1) The culture containers used were plastic pots containing loamy sand with approximately 3.0% of humus as substrate. The seeds of the test plants were sown separately for each species.
(§2) For the pre-emergence treatment, the active compounds, suspended or emulsified in water, were applied directly after sowing by means of finely distributing nozzles. The containers were irrigated gently to promote germination and growth and subsequently covered with transparent plastic hoods until the plants had rooted. This cover caused uniform germination of the test plants unless this was adversely affected by the active compounds.
(§3) Depending on the species, the plants were kept at 10-25° C. and 20-35° C., respectively.
(§4) The test period extended over 2 to 4 weeks. During this time, the plants were tended and their response to the individual treatments was evaluated.
(§5) Evaluation was carried out using a scale from 0 to 100. 100 means no emergence of the plants, or complete destruction of at least the above-ground parts, and 0 means no damage or normal course of growth. A good herbicidal activity is given at values of at least 70, and very good herbicidal activity is given at values of at least 85.
(§6) The respective stated components A and B, and if appropriate, C were formulated as a 10% by weight strength emulsion concentrate and, with addition of the amount of solvent system, introduced into the spray liquor used for applying the active compound. In the examples, the solvent used was water.
(§7) In the examples below, using the method of S. R. Colby (1967) “Calculating synergistic and antagonistic responses of herbicide combinations”, Weeds 15, p. 22ff., the value E, which is expected if the activity of the individual active compounds is only additive, was calculated. E=X+Y−(X·Y/100) where X=effect in percent using herbicide A at an application rate a; • Y=effect in percent using herbicide B at application rate b; • E=expected effect (in %) of herbicide A+herbicide B at application rates a+b.

The subject of another assay is Ambrosia elatior. As to the kind of experiment: greenhouse pre-emergence treatment, AMBEL. Put shortly:
(§8)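 Seeds were sown per species in pots of loamy sand with about 3.0% humus, sprayed with the aqueous spray liquor directly after sowing, watered and hooded until rooted, then kept at 10-25° C. or 20-35° C. for 2 to 4 weeks. Damage was scored 0 (none) to 100 (no emergence/complete destruction).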

The next assay has as its system Helianthus annuus. As to the kind of experiment: greenhouse pre-emergence treatment, HELAN. The note with it: HELAN, 20 DAT. The procedure, abridged:
as §8

For the next assay, the system named is Papaver rhoeas. As to the kind of experiment: greenhouse pre-emergence treatment, PAPRH. The note with it: 20 DAT.
Description: as §1, §2, §3, §4, §5, §6, §7

The test system of a further assay is Lolium multiflorum. As to the kind of experiment: greenhouse pre-emergence treatment, LOLMU. The note with it: Lolium multiflorum, 480 h, 20 DAT.
Description: as §1, §2, §3, §4, §5, §6, §7

In a further assay the test system is Alopecurus myosuroides. As to the kind of experiment: greenhouse pre-emergence treatment, ALOMY. Particulars: 20 DAT.
Description: as §1, §2, §3, §4, §5, §6, §7

In the next assay the test system is Brachiaria decumbens. As to the kind of experiment: greenhouse pre-emergence treatment, BRADC. The note with it: Urochloa decumbens, 480 h, 20 DAT. The procedure, abridged: as §8
Another assay deals with Stellaria media. As to the kind of experiment: greenhouse pre-emergence treatment, STEME. Particulars: 20 DAT.
Description: as §1, §2, §3, §4, §5, §6, §7

Another assay deals with Bromus sterilis. As to the kind of experiment: greenhouse pre-emergence treatment, BROST. The note with it: BROST, 20 DAT; for pest or weed control at 62.5 g/ha: Bromus sterilis, 480 h.
Description: as §1, §2, §3, §4, §5, §6, §7

The next assay deals with Galium aparine. As to the kind of experiment: greenhouse pre-emergence treatment, GALAP.
Description: as §1, §2, §3, §4, §5, §6, §7

The subject of another assay is Polygonum convolvulus. As to the kind of experiment: greenhouse pre-emergence treatment, POLCO. The note with it: Fallopia convolvulus, 480 h, 20 DAT, saflufenacil solo 12.5 gai/ha.
Description: as §1, §2, §3, §4, §5, §6, §7

Another assay concerns Digitaria sanguinalis. As to the kind of experiment: greenhouse pre-emergence treatment, DIGSA. The note with it: Digitaria sanguinalis, 480 h, 20 DAT.
Description: as §1, §2, §3, §4, §5, §6, §7

The subject of another assay is Setaria viridis. As to the kind of experiment: greenhouse pre-emergence treatment, SETVI. The note with it: 20 DAT; for % activity: SETVI.
Description: as §1, §2, §3, §4, §5, §6, §7

The test system of the next assay is Apera spica-venti. As to the kind of experiment: greenhouse pre-emergence treatment, APESV. The note with it: 20 DAT.
Description: as §1, §2, §3, §4, §5, §6, §7

In another assay the test system is Poa annua. As to the kind of experiment: greenhouse pre-emergence treatment, POAAN. Particulars: 20 DAT.
Description: as §1, §2, §3, §4, §5, §6, §7

[1] abbreviates: solo dimethenamid (EC 720 g/l) 62.5 gai/ha.
[2] abbreviates: dimethenamid solo (EC 720 g/l), 62.5 gai/ha.
Where [3] appears, read: dimethenamid solo (EC 720 g/l), 125 gai/ha.
[4] abbreviates: solo saflufenacil (SC 342 g/l) 6.25 gai/ha.
[5] abbreviates: solo saflufenacil (SC 342 g/l) 25 gai/ha.
Where [6] appears, read: solo quinmerac (WP 50%) 250 gai/ha.
The mark [7] stands for this setting: solo quinmerac (WP 50%) 62.5 gai/ha.

Consider `COCC(C)N(C(=O)CCl)c1c(C)csc1C` (stereo not shown) [dimethenamid], for which the “% activity” value turned out to be 10% in the assay with Avena fatua (AVEFA, solo dimethenamid (EC 720 g/l) 62.5 gai/ha); 20% in the assay on Ambrosia elatior (AMBEL, 20 DAT, solo dimethenamid (EC 720 g/l) 125 gai/ha); 30% with Ambrosia elatior (AMBEL, 20 DAT, solo dimethenamid (EC 720 g/l) 250 gai/ha); 35% in the assay with Helianthus annuus (solo dimethenamid (EC 720 g/l) 250 gai/ha); 90% with Papaver rhoeas (setting [1]); 90% in the assay on Papaver rhoeas (setting [2]). Also, the “% activity” value in the assay with Papaver rhoeas (setting [3]) came to 90%; in the assay with Alopecurus myosuroides (setting [3]), 60%; in the assay on Alopecurus myosuroides (dimethenamid solo (EC 720 g/l), 250 gai/ha), 65%; in the assay with Stellaria media (dimethenamid solo (EC 720 g/l), 31.25 gai/ha) it was 80%; in the assay on Stellaria media (setting [2]), 90%; in the assay on Bromus sterilis (setting [1]), 80%. For the same compound, the “% activity” value is 50% in the assay on Galium aparine (GALAP, 20 DAT, solo dimethenamid (EC 720 g/l) 31.25 gai/ha); 60% in the assay on Galium aparine (GALAP, 20 DAT, solo dimethenamid (EC 720 g/l) 62.5 gai/ha); 50% in the assay with Galium aparine (GALAP, 20 DAT, solo dimethenamid (EC 720 g/l) 125 gai/ha). For the same compound, the pest or weed control at 62.5 g/ha with Avena fatua (Avena fatua, 480 h, dimethenamid solo (EC 720 g/l), 62.5 gai/ha, AVEFA) stood at 10%; with Ambrosia elatior (Ambrosia artemisiifolia, 480 h, AMBEL, 20 DAT, solo dimethenamid (EC 720 g/l) 62.5 gai/ha), 0%; in the assay with Lolium multiflorum (dimethenamid solo (EC 720 g/l), 62.5 gai/ha, LOLMU), 80%; in the assay on Bromus sterilis (setting [2]) it was 80%; in the assay with Galium aparine (Galium aparine, 480 h, dimethenamid solo (EC 720 g/l), 62.5 gai/ha, 20 DAT, GALAP), 60%. Moreover, the pest or weed control at 125 g/ha was determined as 50% with Avena fatua (Avena fatua, 480 h, dimethenamid solo (EC 720 g/l), 125 gai/ha, AVEFA); 20% with Ambrosia elatior (Ambrosia artemisiifolia, 480 h, dimethenamid solo (EC 720 g/l), 125 gai/ha, 20 DAT, AMBEL); 50% in the assay on Galium aparine (Galium aparine, 480 h, dimethenamid solo (EC 720 g/l), 125 gai/ha, 20 DAT, GALAP). In addition, the pest or weed control at 250 g/ha stood at 65% in the assay on Avena fatua (Avena fatua, 480 h, dimethenamid solo (EC 720 g/l), 250 gai/ha, AVEFA) and 30% in the assay with Ambrosia elatior (Ambrosia artemisiifolia, 480 h, dimethenamid solo (EC 720 g/l), 250 gai/ha, 20 DAT, AMBEL). In addition, the pest or weed control at 31.25 g/ha in the assay on Ambrosia elatior (Ambrosia artemisiifolia, 480 h, AMBEL, 20 DAT, solo dimethenamid (EC 720 g/l) 31.25 gai/ha) amounted to 0%; with Brachiaria decumbens (dimethenamid solo (EC 720 g/l), 31.25 gai/ha, BRADC), 60%; with Galium aparine (Galium aparine, 480 h, dimethenamid solo (EC 720 g/l), 31.25 gai/ha, 20 DAT, GALAP) it was 50%. In addition, the plant injury at 250 g/ha in the assay on Helianthus annuus (Helianthus annuus, 480 h, dimethenamid solo (EC 720 g/l), 250 gai/ha) is 35%.

`CC(C)N(C)S(=O)(=O)NC(=O)c1cc(-n2c(=O)cc(C(F)(F)F)n(C)c2=O)c(F)cc1Cl` [saflufenacil]: the inhibition at 6.25 g/ha in the assay on Avena fatua (Avena fatua, 480 h, saflufenacil solo 6.25 gai/ha) stood at 0%; in the assay with Lolium multiflorum (saflufenacil solo 6.25 gai/ha) it was 10%; with Digitaria sanguinalis (saflufenacil solo 6.25 gai/ha), 10%; with Setaria viridis (Setaria viridis, 480 h, saflufenacil solo 6.25 gai/ha), 25%. For the same compound, in the assay with Ambrosia elatior (Ambrosia artemisiifolia, 480 h, 20 DAT, saflufenacil solo 6.25 gai/ha), the percent weed control (herbicidal activity, 0-100 scale) at 6.25 g/ha was determined as 45%. Moreover, in the assay with Ambrosia elatior (Ambrosia artemisiifolia, 480 h, Table X11, 20 DAT, AMBEL, solo saflufenacil (title: flumioxazin, WG 51%) 3.75 gai/ha), the pest or weed control at 3.75 g/ha is 0%. Further, the “% activity” value with Alopecurus myosuroides (setting [4]) was 0%; with Alopecurus myosuroides (solo saflufenacil (SC 342 g/l) 12.5 gai/ha), 0%; in the assay with Alopecurus myosuroides (setting [5]), 0%; with Setaria viridis (setting [4]) it was 25%; in the assay on Setaria viridis (setting [5]) it was 65%. The % herbicidal activity (weed control, 0-100 scale) at 6.25 g/ha with Brachiaria decumbens (saflufenacil solo 6.25 gai/ha) came to 10%. Also, the % herbicidal activity (weed control, 0-100 scale) at 12.5 g/ha is 20% in the assay with Brachiaria decumbens (saflufenacil solo 12.5 gai/ha) and 80% in the assay on Galium aparine (Galium aparine, 480 h, 20 DAT, saflufenacil solo 12.5 gai/ha). For the same compound, the pest or weed control at 30 g/ha in the assay on Galium aparine (Galium aparine, 480 h, Table X11, 20 DAT, GALAP, solo saflufenacil (title: flumioxazin, WG 51%) 30 gai/ha, read-out: % activity) worked out at 65%. Moreover, the inhibition at 12.5 g/ha with Polygonum convolvulus turned out to be 90%; in the assay on Setaria viridis (Setaria viridis, 480 h, saflufenacil solo 12.5 gai/ha) it was 40%. The inhibition at 25 g/ha in the assay with Digitaria sanguinalis (saflufenacil solo 25 gai/ha) is 35%; in the assay on Setaria viridis (Setaria viridis, 480 h, saflufenacil solo 25 gai/ha) it was 65%. Further, the inhibition at 50 g/ha with Setaria viridis (Setaria viridis, 480 h, saflufenacil solo 50 gai/ha) is 90%.

For `Cc1cnc2c(C(=O)O)c(Cl)ccc2c1` [quinmerac], the pest or weed control at 31.25 g/ha was 0% with Avena fatua (Avena fatua, 480 h, AVEFA, solo quinmerac (WP 50%) 31.25 gai/ha) and 0% in the assay with Digitaria sanguinalis (DIGSA, solo quinmerac (WP 50%) 31.25 gai/ha). Further, the pest or weed control at 125 g/ha in the assay with Avena fatua (Avena fatua, 480 h, AVEFA, solo quinmerac (WP 50%) 125 gai/ha) was 0%; in the assay with Brachiaria decumbens (quinmerac solo (WP 50%), 125 gai/ha, BRADC) it was 0%; with Galium aparine (Galium aparine, 480 h, GALAP, 20 DAT, solo quinmerac (WP 50%) 125 gai/ha), 95%; with Digitaria sanguinalis (DIGSA, solo quinmerac (WP 50%) 125 gai/ha), 0%. In addition, the pest or weed control at 250 g/ha in the assay on Ambrosia elatior (Ambrosia artemisiifolia, 480 h, AMBEL, 20 DAT, solo quinmerac (WP 50%) 250 gai/ha) came out at 0%; in the assay on Lolium multiflorum (LOLMU, solo quinmerac (WP 50%) 250 gai/ha) it was 0%; in the assay with Brachiaria decumbens (quinmerac solo (WP 50%), 250 gai/ha, BRADC), 30%. Also, the plant injury at 125 g/ha with Helianthus annuus (Helianthus annuus, 480 h, solo quinmerac (WP 50%) 125 gai/ha) came to 0%. Moreover, the plant injury at 62.5 g/ha with Helianthus annuus (Helianthus annuus, 480 h, quinmerac solo (WP 50%), 62.5 gai/ha) is 0%. In addition, the “% activity” value with Papaver rhoeas (setting [6]) was 95%; in the assay on Stellaria media (setting [6]), 0%; with Apera spica-venti (setting [7]) it was 0%; with Apera spica-venti (setting [6]), 25%; with Poa annua (setting [7]), 0%; in the assay with Poa annua (solo quinmerac (WP 50%) 125 gai/ha), 0%. Moreover, the “% activity” value in the assay on Poa annua (setting [6]) is listed as 0%. Further, the pest or weed control at 62.5 g/ha with Brachiaria decumbens (quinmerac solo (WP 50%), 62.5 gai/ha, BRADC) was determined as 0%; in the assay on Bromus sterilis (setting [7]), 0%; in the assay with Digitaria sanguinalis (DIGSA, solo quinmerac (WP 50%) 62.5 gai/ha) it was 0%.

What is called plant injury is how far the test organism was held down. As a reminder, the inhibition is the percentage by which the read-out fell short of the control.
